This note sets out measurements from patent US20100160226A1, “Y-RECEPTOR AGONISTS” (7TM PHARMA A/S, priority 2007, published 2010).

In the first data set the target is T1, human Y1 receptor (Homo sapiens, UniProt P25929).
T1 construct: expressed in transfected cells; host or cells: COS-7
T1 sequence (P25929 1-384): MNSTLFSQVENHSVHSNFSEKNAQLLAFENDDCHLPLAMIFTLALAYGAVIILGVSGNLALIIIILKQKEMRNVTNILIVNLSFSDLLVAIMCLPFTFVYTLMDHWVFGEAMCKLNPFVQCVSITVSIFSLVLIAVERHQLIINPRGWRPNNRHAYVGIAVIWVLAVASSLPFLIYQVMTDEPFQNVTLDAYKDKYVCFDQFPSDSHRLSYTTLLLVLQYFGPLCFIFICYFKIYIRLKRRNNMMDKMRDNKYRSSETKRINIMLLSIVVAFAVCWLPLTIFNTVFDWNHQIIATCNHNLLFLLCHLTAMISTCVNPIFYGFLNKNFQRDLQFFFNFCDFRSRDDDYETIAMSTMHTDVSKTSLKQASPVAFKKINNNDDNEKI
Kind of data set: Human Y1 receptor potency assay (inositol phosphate turnover). Format: cell-based. As to conditions: COS-7 cells transfected with human Y1 receptor and Gqi5, read-out: hY1 EC50. As to the method:
Potency of the test compounds on the human Y2 receptor is determined by performing dose-response experiments in COS-7 cells transiently transfected with the human Y2 receptor as well as a promiscuous G protein, Gqi5 which ensures that the Y2 receptor couples through a Gq pathway leading to an increase in inositol phosphate turnover.
Cells are washed twice in buffer, 20 mM HEPES, pH 7.4, supplemented with 140 mM NaCl, 5 mM KCl, 1 mM MgSO4, 1 mM CaCl2, 10 mM glucose, 0.05% (w/v) bovine serum; and are incubated in 0.5 ml buffer supplemented with 10 mM LiCl at 37 C for 30 min. After stimulation with various concentrations of peptide for 45 min at 37 C, cells are extracted with 10% ice-cold perchloric acid followed by incubation on ice for 30 min. The resulting supernatants are neutralized with KOH in HEPES buffer, and the generated [3H]-inositol phosphate are purified on Bio-Rad AG 1-X8 anion-exchange resin and counted in a beta counter. Determinations are made in duplicates. EC50 values were calculated using a standard pharmacological data handling software, Prism 3.0 (graphPad Sofware, San Diego, USA).
Protocol as for the Y2 potency assay, except that human Y1-transformed COS-7 cells are used.
For the molecule “H-APLEPVYPGDNATPEQMAQYAADLRRYINTITRQRY-NH2 [[Thr30, Ile31, Gln34]hPP]”, the EC50 was greater than 1000 nM.

As for “H-APLEPVYPGDNATPEQMAQYAADLRRYINTLTRQRY-NH2 [[Thr30, Gln34]hPP]”, the EC50 was greater than 1000 nM.

In the case of “H-LEPVYPGDNATPEQMAQYAADLRRYINMLTRQRY-NH2 [[Gln34]hPP3-36, reference compound]”, the EC50 was greater than 1000 nM.

With “H-PLEPVYPGDNATPEQMAQYAADLRRYINTITRQRY-NH2 [[Thr30, Ile31, Gln34]hPP2-36]”, the EC50 is greater than 1000 nM.

For the molecule “H-PLEPVYPGDNATPEQMAQYAADLRRYINTLTRQRY-NH2 [[Thr30, Gln34]hPP2-36]”, the EC50 was greater than 1000 nM.

Test system in another data set: not listed separately
The experiment in a line: in vivo. Further details: species or system cyno monkeys. Conditions: cynomolgus monkey. The source says: PYY itself is know to be extremely emetic when administered peripherally, in fact PYY was discovered-for “the second time” -in 1989 as the biologically active entity in a chromatographic fraction of an intestinal extract causing dogs to vomit (Harding and McDonald 1989 Peptides 10: 21-24). […] It has also been reported that PYY3-36 can cause nausea when administered peripherally to human subjects ([…] press release 29th of June 2004). From a physiological point of view it appears logically that PYY-and its biologically active conversion product-which normally first is secreted in large amounts during a very large meal or when food is dumped into the lower intestine due to various surgical procedures, is able to cause emesis and vomiting to relieve the subject from a situation of overt overeating. […] This is surprising since [[…]]PP has a relatively high potency on the Y2 receptor for which PYY3-36 is totally selective. […] Apparently, the Y4 receptor activation-conceivably in the area postreama-prevents the emetic effect of the Y2 activation form the same compound. This property of a combined Y2-Y4 selective agonist is of great benefit for the treatment of obesity and associated conditions.
Take `CC[C@H](C)[C@H](NC(=O)[C@H](Cc1ccc(O)cc1)NC(=O)[C@H](CCCNC(=N)N)NC(=O)[C@H](CCCNC(=N)N)NC(=O)[C@H](CC(C)C)NC(=O)[C@H](CC(=O)O)NC(=O)[C@H](C)NC(=O)[C@H](C)NC(=O)[C@H](Cc1ccc(O)cc1)NC(=O)[C@H](CCC(N)=O)NC(=O)[C@H](C)NC(=O)[C@H](CCSC)NC(=O)[C@H](CCC(N)=O)NC(=O)[C@H](CCC(=O)O)NC(=O)[C@@H]1CCCN1C(=O)[C@@H](NC(=O)[C@H](C)NC(=O)[C@H](CC(N)=O)NC(=O)[C@H](CC(=O)O)NC(=O)CNC(=O)[C@@H]1CCCN1C(=O)[C@H](Cc1ccc(O)cc1)NC(=O)[C@@H](NC(=O)[C@@H]1CCCN1C(=O)[C@H](CCC(=O)O)NC(=O)[C@H](CC(C)C)NC(=O)[C@@H]1CCCN1C(=O)[C@H](C)N)C(C)C)[C@@H](C)O)C(=O)N[C@@H](CC(N)=O)C(=O)N[C@@H](CCSC)C(=O)N[C@@H](CC(C)C)C(=O)N[C@H](C(=O)N[C@@H](CCCNC(=N)N)C(=O)N[C@@H](CCC(N)=O)C(=O)N[C@@H](CCCNC(=N)N)C(=O)N[C@@H](Cc1ccc(O)cc1)C(N)=O)[C@@H](C)O` [[Gln34]hPP]: the level at time molar is 12 to 13 nM.

In general, EC50 refers to the concentration that produces a half-maximal response.
